≈ marks a conversion by molar mass, not a printed value.
Tests used:
[1] = system: Pseudomonas agarici (DSMZ11810); assay: In vitro antibacterial assay, micro-dilution MIC; assay type: cell-based; conditions: 30 °C, 24 h
[2] = DPPH free radical scavenging assay; conditions: Table 3, unit not given in the table (μM); read-out: EC50 Antioxidant activity (DPPH•)
[3] = ABTS+ free radical scavenging assay; conditions: Table 3, unit not given in the table (μM); read-out: EC50 Antiradical activity (ABTS+)
Electric eel AChE = Electric eel AChE (Electrophorus electricus, UniProt O42275); assay: biochemical; conditions: substrate ATCI, pH 8.0, 25 °C, read-out: IC50 acetylcholinesterase inhibition
[4] = system: Escherichia coli (DSMZ1058); assay: In vitro antibacterial assay, micro-dilution MIC; assay type: cell-based; conditions: Escherischia coli, 37 °C, 24 h
[5] = system: Staphylococcus warneri (DSMZ20036); assay: In vitro antibacterial assay, micro-dilution MIC; assay type: cell-based; conditions: 37 °C, 24 h
[6] = system: Escherichia coli, Micrococcus luteus, Pseudomonas agarici and Staphylococcus warneri; assay: In vitro antibacterial assay, MIC over all the tested bacterial strains; assay type: cell-based; conditions: range over four bacterial strains; read-out: MIC ranging over all the tested bacterial strains
[7] = system: Micrococcus luteus (DSMZ1605); assay: In vitro antibacterial assay, micro-dilution MIC; assay type: cell-based; conditions: 30 °C, 24 h
[8] = system: Trypanosoma cruzi trypomastigotes; parameters: method as in PMID 28572816; conditions: cited from earlier work
mucosal-type mast cells = conditions: cited from earlier work
p53-HDM2 interaction = system: p53-HDM2 interaction; parameters: method as in PMID 16246554; conditions: cited from earlier work

Electric eel AChE, sequence (O42275 24-633): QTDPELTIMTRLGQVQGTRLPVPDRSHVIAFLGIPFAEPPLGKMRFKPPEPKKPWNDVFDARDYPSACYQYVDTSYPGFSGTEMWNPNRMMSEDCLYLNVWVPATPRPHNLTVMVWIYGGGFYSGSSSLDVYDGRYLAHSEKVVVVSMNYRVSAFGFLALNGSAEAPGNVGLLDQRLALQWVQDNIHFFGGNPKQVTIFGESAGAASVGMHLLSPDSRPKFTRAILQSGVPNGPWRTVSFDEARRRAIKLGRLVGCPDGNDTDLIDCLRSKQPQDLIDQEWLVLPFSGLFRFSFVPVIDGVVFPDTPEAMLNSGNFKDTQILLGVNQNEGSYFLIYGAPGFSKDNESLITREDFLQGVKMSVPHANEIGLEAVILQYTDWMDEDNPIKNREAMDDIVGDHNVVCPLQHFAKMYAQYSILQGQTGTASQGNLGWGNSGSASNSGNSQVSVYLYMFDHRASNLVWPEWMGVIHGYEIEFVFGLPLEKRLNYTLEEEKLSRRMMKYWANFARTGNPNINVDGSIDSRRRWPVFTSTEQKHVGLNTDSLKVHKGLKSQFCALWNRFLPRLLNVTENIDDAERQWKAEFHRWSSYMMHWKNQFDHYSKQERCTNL

Compound `O=C1CC(O)C(CO)O1` (stereo not drawn) [Compound 1, 2'-deoxyribolactone] has an MIC [1] of 0.19 µg/mL (≈ 1.44 µM), an EC50 [2] of 0.66 ± 0.02 µM and an EC50 [3] of 0.49 ± 0.02 µM. The IC50 (Electric eel AChE) was 1930 nM, the MIC [4] was 0.3 µg/mL (≈ 2.27 µM) and the MIC [5] was 0.17 µg/mL (≈ 1.29 µM). The MIC [6] was 0.17 to 0.58 µg/mL (≈ 1.29 to 4.39 µM) and the MIC [7] was 0.32 µg/mL (≈ 2.42 µM).

In the case of `CC(C)[C@@H](C)/C=C/[C@@H](C)[C@H]1CC[C@H]2C3=CC=C4C[C@@H](O)CC[C@]4(C)[C@H]3CC[C@]12C` [Compound 3, ergosterol], the EC50 [2] is listed as 1.09 ± 0.02 µM, the “IC50 anti-Trypanosoma cruzi activity against trypomastigotes” value [8] is listed as 51.3 µg/mL (≈ 129 µM) and the EC50 [3] is listed as 0.83 ± 0.02 µM. For the same compound, the IC50 (Electric eel AChE) was 1520 nM and the “effect on the activity of mucosal-type mast cells” value (mucosal-type mast cells) was “inhibitory effect”.

In the case of `COc1ccc(O)c(C(C)(C)C)c1` [BHA, butylated hydroxyanisole, reference compound], the EC50 [2] is reported as 0.13 µM and the EC50 [3] is reported as 0.01 µM.

Compound `Cc1cc(C(C)(C)C)c(O)c(C(C)(C)C)c1` [BHT, butylated hydroxytoluene, reference compound] has an EC50 [2] of 0.46 µM and an EC50 [3] of 0.06 µM.

Compound `C=C(C(=O)O)C(CCCCCC)C(=O)O` (stereo not drawn) [Compound 2, hexylitaconic acid] has an MIC [1] of 0.29 µg/mL (≈ 1.35 µM), an EC50 [2] of 0.56 ± 0.02 µM and an EC50 [3] of 0.88 ± 0.02 µM. For the same compound, the IC50 (Electric eel AChE) was 1540 nM, the MIC [4] was 0.58 µg/mL (≈ 2.71 µM) and the MIC [5] was 0.58 µg/mL (≈ 2.71 µM). The “inhibition of p53-HDM2 interaction” value (p53-HDM2 interaction) was “inhibitor”, the MIC [6] was 0.17 to 0.58 µg/mL (≈ 0.793 to 2.71 µM) and the MIC [7] was 0.29 µg/mL (≈ 1.35 µM).

For `CNC(C)C1CCC(N)C(OC2C(N)CC(N)C(OC3OCC(C)(O)C(NC)C3O)C2O)O1` (stereo not drawn) [Gentamicin, reference compound], the MIC [1] was 0.01 µg/mL (≈ 0.0209 µM), the MIC [4] was 0.01 µg/mL (≈ 0.0209 µM) and the MIC [5] was 0.01 µg/mL (≈ 0.0209 µM). For the same compound, the MIC [7] was 0.01 µg/mL (≈ 0.0209 µM).

Reference: paper PMC6597039, “Bioactive secondary metabolites from new endophytic fungus Curvularia. sp isolated from Rauwolfia macrophylla” (PLoS ONE, 2019)
